The record followed here is ChEMBL document CHEMBL1127953, “Substituent effects of benzopyran-4-(N-cyano)-carboxamidine potassium channel openers for selectivity to guinea pig trachealis” (Bioorg Med Chem Lett, 1994).

Holding throughout (type): functional
The species entered for assay [1] is Cavia porcellus. Description: Maximum relaxation achieved compared to maximum relaxation to aminophylline (mM) in guinea pig trachaelis.
The species named for assay [2] is Rattus norvegicus. The assay is described as follows: Maximum reduction of 30 mM KCl- induced contraction in rat aorta.
The species entered for assay [3] is Rattus norvegicus. Description: […] activity in rat aorta precontracted with 30 mM KCl.
The species named for assay [4] is Cavia porcellus. Description: Inhibition of spontaneous tone in guinea pig trachaelis.

For orientation: EC50 means the midpoint of the concentration-response curve. A high value points to a need for much substance. In the case of `CNC(=O)C1=CC(C)(C)Oc2ccc([N+](=O)[O-])cc21`, the Intrinsic activity was 89.6% in the assay listed under Cavia porcellus [1] and 61% in the assay listed under Rattus norvegicus [2]. Also, the EC50 in the assay listed under Rattus norvegicus [3] was 10.7 nM; in the assay filed under Cavia porcellus [4], 33.1 nM.
Consider `CN(C)C(=S)C1=CC(C)(C)Oc2ccc([N+](=O)[O-])cc21`, for which the results for the Intrinsic activity in the assay listed under Cavia porcellus [1] and in the assay filed under Rattus norvegicus [2] were 77.4% and 71.5%, respectively. Further, the values for the EC50 in the assay listed under Rattus norvegicus [3] and in the assay listed under Cavia porcellus [4] were 955 nM and 490 nM, respectively.
As to `CN(C)/C(=N\C#N)C1=CC(C)(C)Oc2ccc([N+](=O)[O-])cc21`, the Intrinsic activity in the assay listed under Cavia porcellus [1] worked out at 90.6%. Also, the EC50 is over 31600 nM in the assay filed under Rattus norvegicus [3] and 51.3 nM in the assay filed under Cavia porcellus [4].
As for `CN(C)/C(=N\S(N)(=O)=O)C1=CC(C)(C)Oc2ccc([N+](=O)[O-])cc21`, the EC50 in the assay listed under Rattus norvegicus [3] and in the assay filed under Cavia porcellus [4] was over 31600 nM throughout.
As to `CN(C)/C(=N\C#N)C1=CC(C)(C)Oc2ccc(Cl)cc21`, the concentration giving a half-maximal response (EC50) in the assay listed under Rattus norvegicus [3] and in the assay filed under Cavia porcellus [4] was over 31600 nM throughout.
In the assay filed under Cavia porcellus [1], `CN(C)/C(=N/C#N)C1=CC(C)(C)Oc2ccc(OC(F)(F)F)cc21` displayed an Intrinsic activity of 56.1%. For the same molecule, the values for the EC50 in the assay filed under Rattus norvegicus [3] and in the assay listed under Cavia porcellus [4] were over 10000 nM and 407 nM, respectively.
With `CN(C)/C(=N\C#N)C1=CC(C)(C)Oc2ccc(C#N)cc21`, the values for the Intrinsic activity in the assay filed under Cavia porcellus [1] and in the assay listed under Rattus norvegicus [2] were 85.6% and 73.7%, respectively. In addition, the EC50 in the assay listed under Rattus norvegicus [3] is 5010 nM; in the assay listed under Cavia porcellus [4], 2140 nM.
For `CN(C)/C(=C\[N+](=O)[O-])C1=CC(C)(C)Oc2ccc([N+](=O)[O-])cc21`, the Intrinsic activity in the assay listed under Cavia porcellus [1] is reported as 84.8%; in the assay listed under Rattus norvegicus [2], 83.1%. The EC50 in the assay listed under Rattus norvegicus [3] is 6460 nM; in the assay filed under Cavia porcellus [4], 1120 nM.
Take `COc1ccc2c(c1)C(/C(=N/C#N)N(C)C)=CC(C)(C)O2`: the EC50 in the assay filed under Rattus norvegicus [3] and in the assay listed under Cavia porcellus [4] was over 31600 nM in each case.
`CN(C)/C(=N\C#N)C1=CC(C)(C)Oc2ccccc21`: the EC50 in the assay filed under Rattus norvegicus [3] and in the assay filed under Cavia porcellus [4] was over 31600 nM throughout.
Turning to `CN(C)/C(=N\C#N)C1=CC(C)(C)Oc2ccc(Br)cc21`, the EC50 in the assay listed under Rattus norvegicus [3] and in the assay filed under Cavia porcellus [4] was over 31600 nM in each case.
Consider `CN(C)/C(=N\C#N)C1=CC(C)(C)Oc2ccc(C(F)(F)F)cc21`, for which the Intrinsic activity in the assay filed under Cavia porcellus [1] is on record as 74.1%; in the assay listed under Rattus norvegicus [2], 75.2%. Also, the values for the EC50 in the assay listed under Rattus norvegicus [3] and in the assay listed under Cavia porcellus [4] were 12600 nM and 178 nM, respectively.
Taken in the same sequence, the figures for `CN(C)/C(=N\C#N)C1=CC(C)(C)Oc2ccc(S(=O)(=O)c3ccccc3)cc21` were 91.1%, 73.8%, 3310 nM and 3630 nM.
For the molecule `CN(C)/C(=N\C(N)=O)C1=CC(C)(C)Oc2ccc([N+](=O)[O-])cc21`, the EC50 in the assay filed under Rattus norvegicus [3] and in the assay listed under Cavia porcellus [4] was over 31600 nM each time.
Take `CN(C)/C(=N\C#N)C1=CC(C)(C)Oc2ccc(S(C)(=O)=O)cc21`: the EC50 in the assay listed under Rattus norvegicus [3] and in the assay filed under Cavia porcellus [4] was over 31600 nM each time.
Take `CN(C)C(=O)C1=CC(C)(C)Oc2ccc([N+](=O)[O-])cc21`: the Intrinsic activity in the assay listed under Cavia porcellus [1] came to 78.3%; in the assay listed under Rattus norvegicus [2], 79.9%. Further, the EC50 is 129 nM in the assay listed under Rattus norvegicus [3] and 398 nM in the assay filed under Cavia porcellus [4].
In the case of `CC1(C)Oc2ccc(C#N)cc2[C@@H](N2CCCC2=O)[C@H]1O` [CROMAKALIM], the Intrinsic activity in the assay filed under Cavia porcellus [1] amounted to 85.1%; in the assay listed under Rattus norvegicus [2] it was 74.7%. It took 851 nM to reach a half-maximal effect in the assay filed under Cavia porcellus [4] (EC50).
For the molecule `CC(N/C(=N\C#N)Nc1ccncc1)C(C)(C)C` (centres undefined) [PINACIDIL ANHYDROUS], the Intrinsic activity in the assay filed under Cavia porcellus [1] is recorded as 97.3%; in the assay listed under Rattus norvegicus [2], 91.9%. Further, in the assay listed under Cavia porcellus [4], the response was half-maximal at 1580 nM (EC50).
